Data published in PMC2704987 (Pharmacotherapy, 2009).
Where two headings read alike, the source gives them in different places.

Tests used:
[1] = cited from earlier work
[2] = children, 120 mg/m^2/day, range in parentheses; cited from earlier work
[3] = cited from earlier work; remark: listed apart in the source
[4] = child with glioblastoma, cited from earlier work
[5] = adults, 150 mg/day; cited from earlier work
[6] = cited from earlier work; remark: listed apart in the source
[7] = format: in vivo, human; conditions: for AUC / Cmax: human, plasma, po, 120 mg/m^2/day, oral erlotinib 120 mg/m^2/day (150 mg)
[8] = adults, 150 mg/day; cited from earlier work; remark: listed apart in the source
[9] = oral azithromycin, 12 CF patients; cited from earlier work
[10] = orally administered ganciclovir; cited from earlier work
[11] = adult patients with advanced malignant disease
[12] = cystic fibrosis patient, oral erlotinib 150 mg daily

C#Cc1cccc(Nc2ncnc3cc(OCCOC)c(OCCOC)cc23)c1 [erlotinib]
bound to plasma proteins [1]: 95%
Day 1 AUCERL [2]: 22.6 (18.2–27) mcg*h/mL
Day 1 Cmax [2]: 1260 (490–2020) ng/mL
Day 8 AUCERL [2]: 29.5 (12–47) mcg*h/mL
solubility in water and methanol [3]: poor
Day 1 AUCERL ([4]; 70 mg/m^2/day): 19.4 µg·h/mL
Day 8 AUCERL ([4]; 70 mg/m^2/day): 32.6 µg·h/mL
ka ([4]; 70 mg/m^2/day): 0.59 h^−
penetration of erlotinib into the CSF ([4]; oral erlotinib): modest
Day 1 AUCERL [5]: 16.54 ± 11.02 µg·h/mL
half-life [6, 11]: 10 to 36 h
time to maximum concentration (Cmax) after dose administration [6, 11]: 2 to 4 h
bioavailability after oral administration with food ([6]; adults, administration with food): ≥ 100%
elimination in feces ([6]; adults, biliary excretion): 63%
bioavailability after oral administration ([6]; adults, without food): approximately 60%
elimination in urine ([6]; adults): 13%
ka (absorption rate constant) ([7]; cystic fibrosis patient, oral erlotinib 120 mg/m^2/day): 1.51 h^−
VdERL (apparent volume of distribution of erlotinib) ([7]; cystic fibrosis patient, oral erlotinib 120 mg/m^2/day, with pancrelipase): 60.4 L/m^2
Apparent clearance of erlotinib [7, 12]: 4.9 L/h/m^2
Apparent volume of distribution of erlotinib [7, 12]: 60.4 L
rate of erlotinib absorption (ka) [7, 12]: 1.51 h⁻¹
absorption of orally administered erlotinib in a cystic fibrosis patient ([7]; given concomitantly with pancreatic enzymes replacement therapy): not affected
AUC ([7]; Day 1 AUCERL, cystic fibrosis patient, day 1, plasma): 18800 ng·h/mL
Cmax ([7]; Day 1 Cmax, cystic fibrosis patient, day 1, plasma): 1440 ng/mL
AUC ([7]; Day 8 AUCERL, cystic fibrosis patient, day 8 (steady state)): 25700 ng·h/mL
Cmax ([7]; Day 8 Cmax, cystic fibrosis patient, day 8, plasma): 1460 ng/mL
Day 1 AUCERL [8]: 19.4 ± 10 µg·h/mL

CC[C@H]1OC(=O)[C@H](C)[C@@H](O[C@H]2C[C@@](C)(OC)[C@@H](O)[C@H](C)O2)[C@H](C)[C@@H](O[C@@H]2O[C@H](C)C[C@H](N(C)C)[C@H]2O)[C@](C)(O)C[C@@H](C)CN(C)[C@H](C)[C@@H](O)[C@]1(C)O [azithromycin]
Cmax, Tmax, and AUC values, CF patients versus healthy volunteers [9]: similar
absorption rate constant (ka) and absolute bioavailability (F), CF patients versus healthy volunteers [9]: no statistically significant difference

Nc1nc(O)c2ncn(COC(CO)CO)c2n1 [ganciclovir]
pharmacokinetic parameters in post-lung transplant patients with CF [10]: predictable
